Patent publication US20240238268A1, “TREATMENTS AND METHODS FOR TREATING ALZHEIMER'S DISEASE” (Board of Supervisors of Louisiana State University and …, priority 2021, published 2024)

Experiments:
[1] = molecular target: T1, PRMT4 (Mus musculus, UniProt Q9WVG6); assay: PRMT4 protein level in brain, capillary-based immunoassay; format: in vivo; conditions: IP
T1 construct: Protein was extracted from dissected tissue in an extraction buffer; from tissue; host or cells: mouse brain (cortex, hippocampus, whole brain lysate) of 3xTg-AD and C57BL/6J mice
T1 sequence (Q9WVG6 1-608): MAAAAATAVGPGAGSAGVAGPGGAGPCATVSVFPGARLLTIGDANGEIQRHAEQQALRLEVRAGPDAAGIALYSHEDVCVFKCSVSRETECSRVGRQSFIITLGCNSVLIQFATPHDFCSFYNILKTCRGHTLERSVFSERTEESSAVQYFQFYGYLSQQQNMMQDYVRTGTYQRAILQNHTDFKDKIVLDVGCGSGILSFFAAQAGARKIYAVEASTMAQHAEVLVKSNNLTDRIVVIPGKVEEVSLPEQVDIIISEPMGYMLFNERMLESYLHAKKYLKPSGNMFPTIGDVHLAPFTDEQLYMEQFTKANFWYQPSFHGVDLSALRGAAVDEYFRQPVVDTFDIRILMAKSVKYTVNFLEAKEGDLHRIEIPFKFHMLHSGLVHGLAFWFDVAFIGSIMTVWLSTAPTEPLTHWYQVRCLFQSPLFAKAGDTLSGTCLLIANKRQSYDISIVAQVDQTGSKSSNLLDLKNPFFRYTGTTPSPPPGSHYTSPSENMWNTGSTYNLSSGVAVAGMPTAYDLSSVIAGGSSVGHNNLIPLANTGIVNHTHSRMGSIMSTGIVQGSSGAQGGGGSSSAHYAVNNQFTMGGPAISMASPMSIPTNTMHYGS
Description: Dosage, delivery of TP-064: PRMT4 specific inhibitor (TP-064, 30 mg/kg/day for 7 days, IP) was administered once daily for 7 or 21 days to young (4-6 months) and aged (9-12 months) C57BL/6J and 3xTg-AD, male and female mice. The inventors have found a dose response curve that evidences that 30 mg/kg (I.P.) of TP-064 decreases PRMT4 (FIG. 10A). TP-064 was dissolved in 100% DMSO, diluted in 0.9% saline (total injection volume=100 μL, ˜1.5% DMSO in mouse), greater than 5% DMSO can affect the brain.
Treatment regimen: Aged (9-12 month) females from both C57BL6/J as well as 3xTg-AD strains were randomly selected and placed in experimental groups. Treatment consisted of specific PRMT4 inhibitor TP-064 (Cat. No. 6008, Tocris, Minneapolis, MN) (Zhang, de Boer, van der Wel, Van Eck, & Hoekstra, 2021); (Zhong et al., 2018). The pharmacological mechanism of TP-064 has not been well-elucidated though it is thought to act as an allosteric inhibitor of the PRMT4 active site (Nakayama et al., 2018). Based on the pharmacokinetic data provided by the Structural Genomics Consortium (https://www.thesgc.org/), a dose of 30 mg/kg was selected. […] Final dose was calculated based on animal weight.
Capillary-phoresis immunoassay via ProteinSimple®: Quantification of all protein targets was achieved using Simple Western analysis in a Jess™ apparatus per the manufacturer's protocol (ProteinSimple, Bio-techne, Minneapolis, MN). […] Following homogenization and centrifugation (10,000×g, 5 min, 4° C.), protein concentration was determined in tissue protein supernatant samples using DC Protein Assay (Cat. No. 5000112, Bio-Rad Laboratories, Hercules, California) according to manufacturer instructions. […] Antibody diluent (ProteinSimple, Bio-techne, Minneapolis, MN) was used for all antibody dilutions as follows: PRMT4 (1:50, RRID: AB_2068436), PRMT6 (1:100, Cell Signaling Technology cat. 14641), eNOS (1:200, RRID: AB_10850618), nNOS (1:100, RRID: AB_2152488), iNOS (1:100, RRID: AB_10000625), DDAH2 (1:50, RRID: AB_2640442) Antibodies were detected using HRP-conjugated secondary anti-rabbit, and -mouse. […]

[2] = tested on: C57 mice; assay: Neurovascular coupling: microvessel diameter, two-photon laser scanning microscopy, C57 mice; format: in vivo, mouse; conditions: decreased PRMT4 via TP-064/PRMT4-AAV
[3] = tested on: aged 3xTg-AD female mice; assay: T-maze spontaneous alternation; format: in vivo, mouse; conditions: 30 mg/kg, 7 days, IP
Description: FIGS. 20A and 20B are two graphs showing PRMT4 inhibitor (TP-064) or AAV knockdown of PRMT4 improved functional learning/memory in aged 3xTg-AD female mice. […] C57 but increased with administration of TP-064 (30 mg/kg, 7 days, IP). In FIG. 20B, in Novel Object Recognition, aged 3xTg-AD female mice had fewer number of entries in the novel zone v. C57. Treatment with TP-064 or brain-specific AAV knockdown of PRMT4 increased the number of entries. T-maze and novel object recognition test were utilized to analyze working/short-term and reference/long-term memory, respectively. * p<0.05 v. C57 via one-way ANOVA with Tukey's post-hoc analyses.

[4] = aged 3xTg-AD female mice, 30 mg/kg for 7 days, normalized to total protein

SMILES: CNCCN1CCC(c2cc(CN(C)C(=O)c3cccc(Oc4ccccc4)c3)ccn2)CC1 [TP-064, N-Methyl-N-((2-(1-(2-(methylamino)ethyl)piperidin-4-yl)pyridin-4-yl)methyl)-3-phenoxybenzamide]
- PRMT4 expression in whole brain lysate ([1]; 3xTg-AD mice, 7.5, 15 and 30 mg/kg, 7 days, relative to untreated 3xTg-AD): reduced PRMT4 expression in whole brain lysate in a dose-dependent manner
- cortical PRMT4 protein level [1, 4]: reduced
- hippocampal PRMT4 protein level [1, 4]: reduced
- vascular diameters [2]: did not affect
- T-maze spontaneous alternation ratio [3]: increased
